This data set in a line: Solubility of the active material in water. The format is physicochemical. The source says: In one embodiment, the eye drop may comprise the above-described solubilizing agent, so that an active ingredient thereof may be well dissolved and may not be precipitated even after long-term storage, thus resulting in better physical stability and chemical stability. In one embodiment, a concentration of the solubilizing agent in the eye drop may be 0.1 w/v % to 25.0 w/v %. In one embodiment, the type of the solubilizing agent may not be particularly limited, but may include, for example, at least one selected from the group consisting of surfactants, solvents, and mixtures thereof as follows. […] Thus, in one embodiment, the eye drop may comprise the solubilizing agent to dissolve 3-phenyl-4-propyl-1-(pyridin-2-yl)-1H-pyrazol-5-ol by 0.1% (1,000 μg/mL) to 2.0% (20,000 μg/mL).

Values after ≈ are worked out from the molar mass of the structure shown.

As for `CCCc1c(-c2ccccc2)nn(-c2ccccn2)c1O` [3-phenyl-4-propyl-1-(pyridin-2-yl)-1H-pyrazol-5-ol], the solubility (commonly the concentration that dissolves in the medium under given conditions) is roughly 3.4 µg/mL (≈ 12.2 µM).

The values are drawn from patent publication US20230025836A1, “EYE DROP COMPOSITION FOR PREVENTING OR TREATING EYE DISEASE” (Samjin Pharmaceutical Co., Ltd., priority 2019, published 2023).
